# What was measured:
# Format in all cases: cell-based
# hNaV1.3 = target: T1, hNaV1.3 (Homo sapiens, UniProt Q9NY46); assay: Automated whole-cell patch-clamp (QPatch 16X), hNaV1.3; settings: HEK293 cells expressing hNaV1.3 + β1 subunit; QPatch 16X; holding −80 mV, step to 0 mV; peptide incubated 2 min; 0.1% BSA; mean, SEM and n (3-12)
# T1 construct: host or cells: HEK293
# How it was run: (§1)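 HEK293 cells stably expressing the channel (human subtypes with β1 subunit), held at −80 mV; 2 min peptide pre-incubation, then 20 ms steps to 0 mV after a 200 ms −120 mV conditioning pulse. Extracellular pH 7.3 with 20 mM TEA-Cl, CsF-based pipette solution, 0.1% BSA; IC50 from four-parameter Hill fit.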
# hNaV1.2 = target: T2, hNaV1.2 (Homo sapiens, UniProt Q99250); assay: Automated whole-cell patch-clamp (QPatch 16X), hNaV1.2; settings: for IC50: HEK293 cells expressing hNaV1.2 + β1 subunit, QPatch 16X, holding −80 mV, step to 0 mV, peptide incubated 2 min, 0.1% BSA, mean, SEM and n (2-7)
# T2 construct: host or cells: HEK293
# How it was run: as §1
# hNaV1.7 = target: T3, hNaV1.7 (Homo sapiens, UniProt Q15858); assay: Automated whole-cell patch-clamp (QPatch 16X), hNaV1.7; settings: HEK293 cells expressing hNaV1.7 + β1 subunit; QPatch 16X; holding −80 mV, step to 0 mV; peptide incubated 2 min; 0.1% BSA; mean, SEM and n (3-9)
# T3 construct: host or cells: HEK293
# How it was run: as §1
# T1 sequence (Q9NY46 whole entry): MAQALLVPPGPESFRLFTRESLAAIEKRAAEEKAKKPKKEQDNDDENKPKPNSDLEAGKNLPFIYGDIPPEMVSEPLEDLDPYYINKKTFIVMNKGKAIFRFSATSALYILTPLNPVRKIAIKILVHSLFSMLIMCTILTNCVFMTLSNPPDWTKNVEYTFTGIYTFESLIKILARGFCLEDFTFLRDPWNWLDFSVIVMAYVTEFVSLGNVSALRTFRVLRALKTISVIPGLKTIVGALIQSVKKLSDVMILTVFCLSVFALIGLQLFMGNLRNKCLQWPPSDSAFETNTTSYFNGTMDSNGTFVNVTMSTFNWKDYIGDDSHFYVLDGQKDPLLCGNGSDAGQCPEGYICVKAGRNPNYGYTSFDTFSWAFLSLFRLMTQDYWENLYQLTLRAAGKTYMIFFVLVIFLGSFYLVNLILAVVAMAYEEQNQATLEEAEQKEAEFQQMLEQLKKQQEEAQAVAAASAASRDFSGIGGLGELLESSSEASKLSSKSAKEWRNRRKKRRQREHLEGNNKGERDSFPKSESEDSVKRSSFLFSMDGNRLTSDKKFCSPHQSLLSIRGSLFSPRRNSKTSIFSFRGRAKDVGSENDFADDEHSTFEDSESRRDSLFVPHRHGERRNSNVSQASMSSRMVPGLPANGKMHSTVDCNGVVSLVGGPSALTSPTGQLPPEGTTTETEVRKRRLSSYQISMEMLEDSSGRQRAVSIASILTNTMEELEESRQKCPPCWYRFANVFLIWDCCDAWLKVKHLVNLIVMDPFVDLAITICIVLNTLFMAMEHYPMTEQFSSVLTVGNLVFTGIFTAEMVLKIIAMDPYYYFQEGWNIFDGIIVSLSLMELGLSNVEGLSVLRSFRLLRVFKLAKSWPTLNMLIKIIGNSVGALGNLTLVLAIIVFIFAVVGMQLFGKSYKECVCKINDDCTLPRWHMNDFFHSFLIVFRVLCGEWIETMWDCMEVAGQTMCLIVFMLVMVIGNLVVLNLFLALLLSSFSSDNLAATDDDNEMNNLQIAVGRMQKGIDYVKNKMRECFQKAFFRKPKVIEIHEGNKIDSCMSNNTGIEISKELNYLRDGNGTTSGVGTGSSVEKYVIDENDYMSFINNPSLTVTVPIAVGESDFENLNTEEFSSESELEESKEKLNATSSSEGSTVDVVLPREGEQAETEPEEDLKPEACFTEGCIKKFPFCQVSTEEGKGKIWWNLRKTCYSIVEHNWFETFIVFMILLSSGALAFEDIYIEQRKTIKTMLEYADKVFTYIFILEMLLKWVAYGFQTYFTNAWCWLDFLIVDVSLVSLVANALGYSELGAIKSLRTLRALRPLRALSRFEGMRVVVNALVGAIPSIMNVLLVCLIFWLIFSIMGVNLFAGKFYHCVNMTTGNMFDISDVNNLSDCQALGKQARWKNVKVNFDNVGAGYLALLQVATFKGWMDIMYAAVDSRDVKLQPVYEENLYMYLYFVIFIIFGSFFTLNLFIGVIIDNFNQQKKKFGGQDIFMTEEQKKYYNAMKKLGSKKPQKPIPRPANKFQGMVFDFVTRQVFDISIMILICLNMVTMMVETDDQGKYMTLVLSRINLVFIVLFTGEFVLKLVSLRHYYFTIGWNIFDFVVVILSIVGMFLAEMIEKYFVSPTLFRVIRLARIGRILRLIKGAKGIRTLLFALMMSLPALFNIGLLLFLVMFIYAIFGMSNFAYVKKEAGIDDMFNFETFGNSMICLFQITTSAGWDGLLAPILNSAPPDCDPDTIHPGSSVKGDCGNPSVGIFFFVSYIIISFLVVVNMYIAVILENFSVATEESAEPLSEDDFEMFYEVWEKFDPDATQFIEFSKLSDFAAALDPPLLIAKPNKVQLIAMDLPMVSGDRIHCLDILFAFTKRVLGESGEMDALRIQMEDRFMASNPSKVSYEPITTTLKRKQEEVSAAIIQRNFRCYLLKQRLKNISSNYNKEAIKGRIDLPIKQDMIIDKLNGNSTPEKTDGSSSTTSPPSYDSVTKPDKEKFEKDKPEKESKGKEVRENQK
# T1 sequence (Q07699 19-218, further chain): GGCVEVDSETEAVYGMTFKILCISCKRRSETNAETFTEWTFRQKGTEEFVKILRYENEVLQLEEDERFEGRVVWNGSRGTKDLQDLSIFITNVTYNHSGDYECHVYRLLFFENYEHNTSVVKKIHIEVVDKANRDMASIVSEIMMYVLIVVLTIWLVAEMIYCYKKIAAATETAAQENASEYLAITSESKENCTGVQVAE
# T2 sequence (Q07699 19-218): as the sequence (Q07699 19-218, further chain) above
# T2 sequence (Q99250 whole entry): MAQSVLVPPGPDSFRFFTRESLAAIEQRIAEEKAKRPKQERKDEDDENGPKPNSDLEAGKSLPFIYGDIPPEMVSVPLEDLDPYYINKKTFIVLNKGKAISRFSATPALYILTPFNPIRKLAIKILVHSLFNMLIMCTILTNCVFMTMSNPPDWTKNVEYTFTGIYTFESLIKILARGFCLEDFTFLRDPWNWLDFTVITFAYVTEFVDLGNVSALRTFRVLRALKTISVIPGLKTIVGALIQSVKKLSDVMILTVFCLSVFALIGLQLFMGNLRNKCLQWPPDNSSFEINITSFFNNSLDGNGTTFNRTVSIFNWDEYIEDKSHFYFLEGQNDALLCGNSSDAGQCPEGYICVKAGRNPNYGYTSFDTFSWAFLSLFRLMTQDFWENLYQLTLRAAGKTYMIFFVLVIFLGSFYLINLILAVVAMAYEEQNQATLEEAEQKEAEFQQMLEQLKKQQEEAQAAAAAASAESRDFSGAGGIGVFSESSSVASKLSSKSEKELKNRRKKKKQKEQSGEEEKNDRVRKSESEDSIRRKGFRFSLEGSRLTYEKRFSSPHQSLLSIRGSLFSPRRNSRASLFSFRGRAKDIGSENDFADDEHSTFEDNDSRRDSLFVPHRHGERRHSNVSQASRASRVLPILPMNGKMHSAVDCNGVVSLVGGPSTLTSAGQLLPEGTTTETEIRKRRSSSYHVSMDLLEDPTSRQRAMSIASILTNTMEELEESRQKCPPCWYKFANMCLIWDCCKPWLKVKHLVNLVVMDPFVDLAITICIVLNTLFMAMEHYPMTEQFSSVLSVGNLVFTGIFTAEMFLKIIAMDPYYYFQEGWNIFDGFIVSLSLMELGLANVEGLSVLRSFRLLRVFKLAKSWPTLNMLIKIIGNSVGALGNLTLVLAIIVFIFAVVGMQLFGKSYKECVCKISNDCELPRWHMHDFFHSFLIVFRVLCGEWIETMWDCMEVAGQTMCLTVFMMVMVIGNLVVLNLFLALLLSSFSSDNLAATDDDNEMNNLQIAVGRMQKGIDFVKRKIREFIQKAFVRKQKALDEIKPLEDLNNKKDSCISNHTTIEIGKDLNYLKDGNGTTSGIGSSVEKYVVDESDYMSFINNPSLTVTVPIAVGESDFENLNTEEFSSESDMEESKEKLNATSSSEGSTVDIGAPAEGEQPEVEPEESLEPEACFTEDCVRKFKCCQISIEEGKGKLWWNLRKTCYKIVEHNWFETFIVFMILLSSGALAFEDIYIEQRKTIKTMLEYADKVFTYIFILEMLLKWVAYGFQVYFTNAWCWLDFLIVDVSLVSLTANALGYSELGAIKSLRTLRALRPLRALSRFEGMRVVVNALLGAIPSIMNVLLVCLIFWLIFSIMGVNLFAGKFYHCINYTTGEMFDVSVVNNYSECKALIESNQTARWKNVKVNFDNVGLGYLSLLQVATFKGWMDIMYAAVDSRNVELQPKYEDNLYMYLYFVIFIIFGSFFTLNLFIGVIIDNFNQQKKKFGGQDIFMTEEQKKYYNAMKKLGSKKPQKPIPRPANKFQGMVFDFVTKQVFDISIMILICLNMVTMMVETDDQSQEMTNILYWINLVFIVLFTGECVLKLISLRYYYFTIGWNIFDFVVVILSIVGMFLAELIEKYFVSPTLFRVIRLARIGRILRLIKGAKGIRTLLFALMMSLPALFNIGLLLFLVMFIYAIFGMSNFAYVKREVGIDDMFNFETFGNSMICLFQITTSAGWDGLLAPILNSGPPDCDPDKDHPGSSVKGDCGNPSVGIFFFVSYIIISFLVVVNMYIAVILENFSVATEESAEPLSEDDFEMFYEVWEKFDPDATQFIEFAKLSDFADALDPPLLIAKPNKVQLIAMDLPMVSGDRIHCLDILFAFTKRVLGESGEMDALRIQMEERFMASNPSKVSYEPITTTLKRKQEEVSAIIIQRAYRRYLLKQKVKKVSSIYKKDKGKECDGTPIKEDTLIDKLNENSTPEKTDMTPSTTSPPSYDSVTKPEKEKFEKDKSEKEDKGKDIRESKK
Compound,IC50 (hNaV1.3) [nM],IC50 (hNaV1.2) [nM],hNaV1.2-selectivity against hNaV1.3 (hNaV1.2; ratio of potencies hNaV1.3 / hNaV1.2) [fold],IC50 (hNaV1.7) [nM]
CC(C)C[C@H](NC(=O)[C@H](Cc1ccc(O)cc1)NC(=O)[C@H](Cc1ccc(O)cc1)NC(=O)[C@H](CCCNC(=N)N)NC(=O)[C@@H]1CSSC[C@@H]2NC(=O)[C@H](CCCCN)NC(=O)[C@H](CC(N)=O)NC(=O)[C@H](CC(N)=O)NC(=O)[C@H](CC(N)=O)NC(=O)[C@@H]3CCCN3C(=O)[C@H](CC(=O)O)NC(=O)[C@@H]3CSSC[C@H](NC(=O)[C@H](C(C)C)NC(=O)[C@H](Cc4ccc(O)cc4)NC(=O)CNC(=O)[C@H](CCC(=O)O)NC(=O)[C@H](CSSC[C@H](NC(=O)[C@H](CC(=O)O)NC(=O)CN)C(=O)N[C@@H](CC(C)C)C(=O)NCC(=O)N[C@@H](Cc4c[nH]c5ccccc45)C(=O)N[C@@H](Cc4ccccc4)C(=O)N[C@@H](CO)C(=O)NCC(=O)N3)NC2=O)C(=O)N[C@@H](Cc2c[nH]cn2)C(=O)N[C@@H](Cc2c[nH]c3ccccc23)C(=O)N[C@@H](CCCCN)C(=O)N[C@@H](Cc2ccc(O)cc2)C(=O)N2CCC[C@H]2C(=O)N[C@@H](Cc2c[nH]c3ccccc23)C(=O)N1)C(=O)O [D32Y],417,75,~6,110
CC(C)C[C@H](NC(=O)[C@H](CC(=O)O)NC(=O)[C@H](Cc1ccc(O)cc1)NC(=O)[C@H](CCCNC(=N)N)NC(=O)[C@@H]1CSSC[C@@H]2NC(=O)[C@H](CCCCN)NC(=O)[C@H](CC(N)=O)NC(=O)[C@H](CC(N)=O)NC(=O)[C@H](CC(N)=O)NC(=O)[C@@H]3CCCN3C(=O)[C@H](CC(=O)O)NC(=O)[C@@H]3CSSC[C@H](NC(=O)[C@H](C(C)C)NC(=O)[C@H](Cc4ccc(O)cc4)NC(=O)CNC(=O)[C@H](Cc4ccccc4)NC(=O)[C@H](CSSC[C@H](NC(=O)[C@H](CC(=O)O)NC(=O)CN)C(=O)N[C@@H](CC(C)C)C(=O)NCC(=O)N[C@@H](Cc4c[nH]c5ccccc45)C(=O)N[C@@H](Cc4ccccc4)C(=O)N[C@@H](CO)C(=O)NCC(=O)N3)NC2=O)C(=O)N[C@@H](Cc2c[nH]cn2)C(=O)N[C@@H](Cc2c[nH]c3ccccc23)C(=O)N[C@@H](CCCCN)C(=O)N[C@@H](Cc2ccc(O)cc2)C(=O)N2CCC[C@H]2C(=O)N[C@@H](Cc2c[nH]c3ccccc23)C(=O)N1)C(=O)O [E18F],395,232,–,171
CC(C)C[C@H](NC(=O)[C@H](CC(=O)O)NC(=O)[C@H](Cc1ccc(O)cc1)NC(=O)[C@H](CCCNC(=N)N)NC(=O)[C@@H]1CSSC[C@@H]2NC(=O)[C@H](CCCCN)NC(=O)[C@H](CC(N)=O)NC(=O)[C@H](CC(N)=O)NC(=O)[C@H](CC(N)=O)NC(=O)[C@@H]3CCCN3C(=O)[C@H](CC(=O)O)NC(=O)[C@@H]3CSSC[C@H](NC(=O)[C@H](C(C)C)NC(=O)[C@H](Cc4ccc(O)cc4)NC(=O)CNC(=O)[C@H](CCC(=O)O)NC(=O)[C@H](CSSC[C@H](NC(=O)[C@H](CC(=O)O)NC(=O)CN)C(=O)N[C@@H](CC(C)C)C(=O)NCC(=O)N[C@@H](Cc4c[nH]c5ccccc45)C(=O)N[C@@H](Cc4ccccc4)C(=O)N[C@@H](CO)C(=O)NCC(=O)N3)NC2=O)C(=O)N[C@@H](Cc2c[nH]cn2)C(=O)N[C@@H](Cc2c[nH]c3ccccc23)C(=O)N[C@@H](CCCCN)C(=O)N[C@@H](Cc2c[nH]cn2)C(=O)N2CCC[C@H]2C(=O)N[C@@H](Cc2c[nH]c3ccccc23)C(=O)N1)C(=O)O [Y26H],484,369,–,244
